From publication PMC9555309, “Improvement of native structure-based peptides as efficient inhibitors of protein-protein interactions of SARS-CoV-2 spike protein and human ACE2” (Frontiers in Molecular Biosciences, 2022)
No end group written: not given here.

Key:
[1] = biological target: RBD domain of the SARS-CoV-2 S protein (Severe acute respiratory syndrome coronavirus 2, UniProt P0DTC2); test: biochemical; assay type: binding; settings: KD Tmeasur. 25°C
[2] = tested on: BEAS 2B cells; test: MTS cell viability assay, BEAS 2B; assay type: cell-based, human; settings: 72 h exposure, concentrations up to 1 mM
Method: (§1) BEAS 2B (cat. no.: ATCC® CRL-9609™) and Calu-3 (cat. no.: ATCC HTB-55™) cell lines were purchased from the American Type Culture Collection (ATCC, United States). BEAS 2B cells were maintained in Bronchial Epithelial Cell Growth Medium (BEGM) containing Bronchial Epithelial Basal Medium (BEBM cat. no.: CC-3171) supplemented with growth factors (SingleQuotsTM Supplement Pack cat. no.: CC-4175), both from Lonza (Switzerland). […]
(§2) After 72 h of incubation at 37°C, the combined solution of MTS (Promega, United States, cat. no.: G1112) and an electron coupling reagent, phenazine methosulfate (PMS, Sigma-Aldrich, Merck, Germany, cat. no.: P9625) was added to the cell culture media, to a final concentration of 333 μg/ml MTS and 25 μM PMS. Cells were then incubated for 3 h at 37°C in a humidified, 5% CO2 atmosphere, and the absorbance at 490 nm wavelength was measured using a spectrophotometer (Synergy HT Microplate Reader, BioTek, United States). The absorbance values recorded for cells exposed to peptide were compared to values measured for untreated control cells, regarded as 100% cell viability.
(§3) The amount of formazan product measured spectrophotometrically is directly proportional to the number of viable cells ([Berridge et al., 2005]).

[3] = tested on: Calu-3 cells; test: MTS cell viability assay, Calu-3; assay type: cell-based, human; settings: Calu-3, 72 h exposure, concentrations up to 1 mM
Method: as §1, §2, §3

[4] = tested on: SARS-CoV-2 S protein - hACE2 interaction; settings: ref Odolczyk et al., 2021; read-out: IC50 inhibition of virus-host protein-protein interaction; cited from earlier work

| Compound | Kd [1] | Cell viability (MTS) [2] | Cell viability (MTS) [3] | IC50 [4] |
| --- | --- | --- | --- | --- |
| NC(=O)C[C@H](NC(=O)CNC(=O)[C@H](Cc1ccc(O)cc1)NC(=O)[C@@H](N)CC(=O)O)C(=O)N[C@@H](Cc1c[nH]cn1)C(=O)N[C@@H](CCC(=O)O)C(=O)O [J3, DYGNHE] | 0.05 ± 0.01 µM | not affected | not affected |  |
| NCCCC[C@H](NC(=O)[C@@H](N)CC(=O)O)C(=O)NCC(=O)N[C@@H](CC(N)=O)C(=O)N[C@@H](Cc1c[nH]cn1)C(=O)N[C@@H](CCC(=O)O)C(=O)O [pep1d, DKGNHE] |  |  |  | 3300 µM |
| LYGNYE [J3.5, LYGNYE] | > 1 µM |  |  |  |
| MYGNYE [J3.4, MYGNYE] | > 10 µM |  |  |  |
